Test results taken from ChEMBL document CHEMBL5154907, “Discovery and Anti-Inflammatory Activity Evaluation of a Novel CDK8 Inhibitor through Upregulation of IL-10 for the Treatment of Inflammatory Bowel Disease In Vivo” (J Med Chem, 2022).

Key:
BMDC = assay: Anti-inflammatory activity against R848-stimulated mouse BMDC cells assessed as upregulation of IL-10 production at 5 uM treated for 24 hrs followed by R848 stimulation for 12 hrs by ELISA method (reference value: 100 %); assay type: functional; conditions: time 36 hrs
[1] = target: CDK8/Cyclin C (Homo sapiens) (UniProt P49336+P24863); assay: Inhibition of recombinant full length His tagged human CDK8/Cyclin C expressed in Baculovirus at 200 nM incubated for 60 mins in presence of ATP by ADP-Glo kinase assay
CDK8/Cyclin C = CDK8/Cyclin C (Homo sapiens, UniProt P49336); assay: Inhibition of recombinant full length His tagged human CDK8/Cyclin C expressed in Baculovirus incubated for 60 mins in presence of ATP by ADP-Glo kinase assay
Chain of CDK8/Cyclin C (P49336 whole entry): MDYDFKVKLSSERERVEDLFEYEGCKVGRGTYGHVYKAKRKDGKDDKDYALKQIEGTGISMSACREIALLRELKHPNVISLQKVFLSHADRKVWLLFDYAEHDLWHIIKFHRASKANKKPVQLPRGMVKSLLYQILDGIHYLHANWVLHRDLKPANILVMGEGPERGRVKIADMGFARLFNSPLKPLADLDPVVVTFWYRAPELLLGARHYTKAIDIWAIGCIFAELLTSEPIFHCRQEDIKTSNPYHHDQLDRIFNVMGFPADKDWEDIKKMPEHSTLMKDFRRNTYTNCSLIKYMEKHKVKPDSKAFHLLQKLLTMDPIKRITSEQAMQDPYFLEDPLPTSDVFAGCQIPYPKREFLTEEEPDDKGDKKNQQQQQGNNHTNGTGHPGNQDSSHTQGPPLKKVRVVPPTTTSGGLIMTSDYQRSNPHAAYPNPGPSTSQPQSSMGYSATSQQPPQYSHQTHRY
Chain of CDK8/Cyclin C (P24863 whole entry, further chain): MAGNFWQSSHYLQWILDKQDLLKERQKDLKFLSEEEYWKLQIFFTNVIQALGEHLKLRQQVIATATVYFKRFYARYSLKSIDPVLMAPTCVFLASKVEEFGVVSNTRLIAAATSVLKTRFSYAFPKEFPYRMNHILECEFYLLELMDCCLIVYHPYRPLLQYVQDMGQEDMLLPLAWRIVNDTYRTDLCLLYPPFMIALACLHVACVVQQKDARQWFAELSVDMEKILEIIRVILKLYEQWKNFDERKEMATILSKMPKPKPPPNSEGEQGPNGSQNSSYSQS

[2] = Transcriptional activity of AP-1 in R848-stimulated mouse BMDC cells transfected with pAP1-luc assessed as ratio of AP-1 activity at 5 uM treated for 24 hrs followed by R848 stimulation for 4 hrs by luminescence based microplate reader analysis relative to control; assay type: functional; conditions: time 28 hrs

Row | SMILES | Activity (BMDC) [%] | inhibition [1] [%] | IC50 (CDK8/Cyclin C) [nM] | Ratio [2]
1 | CN(C)Cc1ccc(-c2cc(O)c3c(=O)cc(-c4ccccc4)oc3c2)cc1 | 82 | 47 |  | 
2 | Cc1ccc(-c2cc(O)c3c(=O)cc(-c4ccccc4)oc3c2)cc1 | 83 | 62 | 155 | 2.6
3 | Cc1cc(C)c(NC(=O)c2cc(O)cc(-c3ccc(C(=O)N4CCNCC4)cc3)c2)c(C)c1 | 59 | 38 |  | 
4 | O=c1cc(-c2ccccc2)oc2cc(-c3ccncc3)cc(O)c12 | 73 | 24 |  | 1.2
5 | O=C(NCc1ccccc1)c1cncc(-c2ccc(C(=O)N3CCNCC3)cc2)c1 | 72 | 62 |  | 
6 | O=C(NC1CCCCC1)c1cncc(-c2ccc(C(=O)N3CCNCC3)cc2)c1 | 59 | 53 |  | 
7 | O=C(Nc1cccc(C(F)(F)F)c1)c1cc(O)cc(-c2ccc(C(=O)N3CCNCC3)cc2)c1 | 19 | 15 |  | 
8 | CC1CCc2nc(N)c(C#N)c(-c3cccnc3)c2C1 (stereo not given) | 66 |  | 211 | 2.5
9 | CC(C)c1ccc(NC(=O)c2cncc(-c3ccc(C(=O)N4CCNCC4)cc3)c2)cc1 | 61 | 62 |  | 
10 | CN1CCN(c2ccc(-c3cc(O)c4c(=O)cc(-c5ccccc5)oc4c3)cc2)CC1 | 53 | 42 |  | 1.4
11 | CC(=O)Nc1ccccc1NC(=O)c1cncc(-c2ccc(C(=O)N3CCNCC3)cc2)c1 | 29 | 47 |  | 
12 | O=C(Nc1ccccc1)c1cccc(-c2ccc(C(=O)N3CCNCC3)cc2)c1 |  | 67 | 162 | 1.7
13 | O=C(c1ccc(-c2cc(O)c3c(=O)cc(-c4ccccc4)oc3c2)cc1)N1CCOCC1 | 25 | 6 |  | 
14 | CCN1CCN(C(=O)c2ccc(-c3cc(O)c4c(=O)cc(-c5ccccc5)oc4c3)cc2)CC1 | 23 | 57 |  | 
15 | CC(=O)Nc1cccc(NC(=O)c2cc(O)cc(-c3ccc(C(=O)N4CCNCC4)cc3)c2)c1 | 12 |  |  | 
16 | O=c1cc(-c2ccccc2)oc2cc(-c3ccc(OC(F)(F)F)cc3)cc(O)c12 | 44 | 48 |  | 
17 | CCCN1CCN(C(=O)c2ccc(-c3cc(O)c4c(=O)cc(-c5ccccc5)oc4c3)cc2)CC1 | 53 | 29 |  | 
18 | CCN1CCN(c2ccc(-c3cc(O)c4c(=O)cc(-c5ccccc5)oc4c3)cc2)CC1 | 40 | 29 |  | 
19 | O=c1cc(-c2ccccc2)oc2cc(-c3ccc(C(F)(F)F)cc3)cc(O)c12 |  | 28 | 2110 | 1.4
20 | COc1cc(OC)c(-c2cc(O)c3c(=O)cc(-c4ccccc4)oc3c2)c(OC)c1 |  | 56 | 205 | 
21 | CC(C)c1cccc(NC(=O)c2cncc(-c3ccc(C(=O)N4CCNCC4)cc3)c2)c1 |  | 64 |  | 
22 | O=C(NCc1ccoc1)c1cncc(-c2ccc(C(=O)N3CCNCC3)cc2)c1 | 60 | 61 |  | 
23 | O=C(Nc1ccc(OC(F)(F)F)cc1)c1cc(O)cc(-c2ccc(C(=O)N3CCNCC3)cc2)c1 | 88 | 5 |  | 
24 | Nc1cccc(NC(=O)c2cc(O)cc(-c3ccc(C(=O)N4CCNCC4)cc3)c2)c1 | 53 | 39 |  | 

Row | SMILES | Activity (BMDC) [%] | inhibition [1] [%] | IC50 (CDK8/Cyclin C) [nM] | Ratio [2]
25 | O=c1cc(-c2ccccc2)oc2cc(-c3ccc(N4CCOCC4)cc3)cc(O)c12 | 23 | 19 |  | 
26 | O=C(Nc1ccccc1F)c1cc(O)cc(-c2ccc(C(=O)N3CCNCC3)cc2)c1 | 42 | 19 |  | 
27 | CCc1ccc(NC(=O)c2cc(O)cc(-c3ccc(C(=O)N4CCNCC4)cc3)c2)cc1 | 72 | 48 |  | 
28 | CC(C)c1ccccc1NC(=O)c1cncc(-c2ccc(C(=O)N3CCNCC3)cc2)c1 | 78 | 58 |  | 
29 | CC(C)c1ccccc1NC(=O)c1cc(O)cc(-c2ccc(C(=O)N3CCNCC3)cc2)c1 | 23 | 53 |  | 
30 | O=C(Nc1cccc(F)c1)c1cncc(-c2ccc(C(=O)N3CCNCC3)cc2)c1 | 53 | 42 |  | 
31 | Cc1ccc(NC(=O)c2cncc(-c3ccc(C(=O)N4CCNCC4)cc3)c2)cc1 | 62 | 77 |  | 
32 | O=C(c1ccc(-c2cc(O)c3c(=O)cc(-c4ccccc4)oc3c2)cc1)N1CCSCC1 | 46 | 19 |  | 
33 | Nc1ccc(NC(=O)c2cc(O)cc(-c3ccc(C(=O)N4CCNCC4)cc3)c2)cc1 | 20 | 31 |  | 
34 | CC(=O)Nc1ccc(NC(=O)c2cc(O)cc(-c3ccc(C(=O)N4CCNCC4)cc3)c2)cc1 | 30 | 45 |  | 
35 | O=c1cc(-c2ccccc2)oc2cc(-c3ccc(CN4CCOCC4)cc3)cc(O)c12 | 53 | 43 |  | 
36 | O=c1cc(-c2ccccc2)oc2cc(-c3ccsc3)cc(O)c12 |  | 6 |  | 
37 | CC(C)c1cccc(NC(=O)c2cc(O)cc(-c3ccc(C(=O)N4CCNCC4)cc3)c2)c1 | 62 | 29 |  | 
38 | O=c1cc(-c2ccccc2)oc2cc(-c3ccc(Cl)cc3)cc(O)c12 |  | 31 |  | 
39 | O=C(Nc1cccc(OC(F)(F)F)c1)c1cncc(-c2ccc(C(=O)N3CCNCC3)cc2)c1 | 48 | 44 |  | 
40 | COc1cccc(NC(=O)c2cc(O)cc(-c3ccc(C(=O)N4CCNCC4)cc3)c2)c1 | 17 | 36 |  | 
41 | CN(C)c1ccc(-c2cc(O)c3c(=O)cc(-c4ccccc4)oc3c2)cc1 |  | 62 | 177 | 1.4
42 | O=C(Nc1cccc(Cl)c1)c1cncc(-c2ccc(C(=O)N3CCNCC3)cc2)c1 | 39 | 47 |  | 
43 | O=c1cc(-c2ccccc2)oc2cc(-c3cncnc3)cc(O)c12 |  | 35 | 548 | 
44 | CN(C)C(=O)c1ccc(-c2cc(O)c3c(=O)cc(-c4ccccc4)oc3c2)cc1 | 76 | 43 |  | 
45 | O=C(Nc1cccc(OC(F)(F)F)c1)c1cc(O)cc(-c2ccc(C(=O)N3CCNCC3)cc2)c1 | 10 |  |  | 
46 | Nc1cccc(NC(=O)c2cncc(-c3ccc(C(=O)N4CCNCC4)cc3)c2)c1 | 60 | 59 |  | 
47 | O=C(Nc1ccc(F)cc1)c1cc(O)cc(-c2ccc(C(=O)N3CCNCC3)cc2)c1 | 42 | 12 |  | 
48 | O=C(Nc1ccccc1F)c1cncc(-c2ccc(C(=O)N3CCNCC3)cc2)c1 | 62 | 55 |  | 

Row | SMILES | Activity (BMDC) [%] | inhibition [1] [%] | IC50 (CDK8/Cyclin C) [nM] | Ratio [2]
49 | O=c1cc(-c2ccccc2)oc2cc(-c3ccoc3)cc(O)c12 | 48 | 29 |  | 
50 | CC(C)(C)c1ccc(NC(=O)c2cc(O)cc(-c3ccc(C(=O)N4CCNCC4)cc3)c2)cc1 | 72 | 35 |  | 
51 | CC(=O)Nc1ccc(-c2cc(O)c3c(=O)cc(-c4ccccc4)oc3c2)cc1 | 49 | 54 |  | 
52 | O=C(Nc1ccc(C(F)(F)F)cc1)c1cncc(-c2ccc(C(=O)N3CCNCC3)cc2)c1 | 19 | 23 |  | 
53 | Cc1ccc(NC(=O)c2cc(O)cc(-c3ccc(C(=O)N4CCNCC4)cc3)c2)cc1 | 34 | 21 |  | 
54 | Cn1cc(-c2cc(O)c3c(=O)cc(-c4ccccc4)oc3c2)cn1 | 57 | 11 |  | 
55 | O=C(NCCc1ccccc1)c1cncc(-c2ccc(C(=O)N3CCNCC3)cc2)c1 | 62 | 52 |  | 
56 | O=C(Nc1ccc(C(F)(F)F)cc1)c1cc(O)cc(-c2ccc(C(=O)N3CCNCC3)cc2)c1 | 8 | 40 |  | 
57 | COc1ccc(NC(=O)c2cc(O)cc(-c3ccc(C(=O)N4CCNCC4)cc3)c2)cc1 | 56 | 61 |  | 
58 | O=C(Nc1ccc(F)cc1)c1cncc(-c2ccc(C(=O)N3CCNCC3)cc2)c1 | 75 | 60 |  | 
59 | CCc1ccc(-c2cc(O)c3c(=O)cc(-c4ccccc4)oc3c2)cc1 |  | 31 |  | 
60 | O=C(Nc1ccc(OC(F)(F)F)cc1)c1cncc(-c2ccc(C(=O)N3CCNCC3)cc2)c1 | 62 | 55 |  | 
61 | CN1CCN(Cc2ccc(-c3cc(O)c4c(=O)cc(-c5ccccc5)oc4c3)cc2)CC1 | 36 | 25 |  | 1.1
62 | O=C(Nc1cccc(F)c1)c1cc(O)cc(-c2ccc(C(=O)N3CCNCC3)cc2)c1 | 26 | 20 |  | 
63 | Cc1noc(C)c1-c1cc(O)c2c(=O)cc(-c3ccccc3)oc2c1 | 30 | 12 |  | 
64 | CC(=O)Nc1cccc(NC(=O)c2cncc(-c3ccc(C(=O)N4CCNCC4)cc3)c2)c1 | 78 | 65 | 134 | 
65 | COc1ccccc1NC(=O)c1cncc(-c2ccc(C(=O)N3CCNCC3)cc2)c1 | 62 | 60 |  | 
66 | Cc1cccc(NC(=O)c2cc(O)cc(-c3ccc(C(=O)N4CCNCC4)cc3)c2)c1 | 76 | 20 |  | 
67 | COc1ccc(-c2cc(O)c3c(=O)cc(-c4ccccc4)oc3c2)cc1 | 76 | 47 |  | 
68 | CC(C)(C)c1ccc(NC(=O)c2cncc(-c3ccc(C(=O)N4CCNCC4)cc3)c2)cc1 | 63 | 54 |  | 
69 | CN1CCN(C(=O)c2ccc(-c3cc(O)c4c(=O)cc(-c5ccccc5)oc4c3)cc2)CC1 | 19 |  |  | 
70 | CC(C)c1ccc(NC(=O)c2cc(O)cc(-c3ccc(C(=O)N4CCNCC4)cc3)c2)cc1 | 53 | 28 |  | 
71 | COc1cc(-c2cc(O)c3c(=O)cc(-c4ccccc4)oc3c2)cc(OC)c1OC | 78 | 27 |  | 
